{"source": "paper PMC6145916", "about": "“Interaction of mitochondrial fission factor with dynamin related protein 1 governs physiological mitochondrial function in vivo” (Scientific Reports, 2018)", "key": {"Drp1": {"tested_on": "Drp1", "test": "Mitochondrial Drp1 content in brain of wild-type mice", "format": "in vivo, mouse", "conditions": "3 mg/Kg/day, subcutaneous osmotic pump, 8-week treatment, WT mice; Drp1 relative to ALDH2; n = 4 mice", "text": "(§1) (a) Quantification of mitochondrial Drp1 content relative to ALDH2 (a mitochondrial matrix enzyme) in the mitochondrial fraction isolated from total brain lysate of wild-type mice (Western blot shown in Fig. S3B) (n = 4 mice). (b) ATP content in brain tissue of wild-type mice (n = 4 mice, 2 replicates). (c) Representative transmission electron microscopy images of the striatum from wild-type mice. […] The first principal component represents 42% of the variation. (f) Local linear embedding dimensionality reduction and visualization of all behaviors collected weekly from TAT- (black) or P259- (purple) treated WT and TAT- (white) treated R6/2 mice over the course of 8 weeks. […] All behavior and survival tests were conducted by an experienced observer who was blinded to the treatment groups. Data are mean ± s.e.\n(§2) Five-week old R6/2 HD mice and their wild-type littermates (a total of 60 mice) were implanted subcutaneously with a 28-d Alzet osmotic pump with either P259-TAT or TAT control peptide (15 mice per group) to be delivered continuously at a rate of 3 mg/Kg/day, as previously described. […]\nThe effect of peptides on GTPase activity of Drp1 was measured by incubating recombinant Drp1 […]\nfor 1 hour at 37 °C. GTPase activity was measured using a colorimetric GTPase assay kit (Novus Biologicals, CO, USA) as instructed by the manufacturer. […]"}, "[1]": {"tested_on": "Drp1 with Fis1/Mid49/Mid51", "test": "Co-immunoprecipitation of recombinant Drp1 with the other adaptors", "format": "binding", "conditions": "1 µM P259, 2 hours at 4 °C, 200 ng Drp1, 200 ng adaptor, RIPA buffer; representative blot of two independent experiments"}, "Wild-type MEF cells": {"tested_on": "Wild-type MEF cells", "conditions": "4 µM P259, 15 minutes, mito-dendra2 photoconversion; 9 movies over two independent experiments"}, "HD R6/2 model mice": {"tested_on": "HD R6/2 model mice", "test": "Survival of R6/2 Huntington's mice", "format": "in vivo, mouse", "conditions": "3 mg/Kg/day, continuous subcutaneous osmotic pump, 8 weeks, vs TAT; 15 mice per group", "text": "as §1\nas §2, with “described. All mice were implanted twice for a total of an 8-week treatment. 20 of the WT mice were implanted 3 times for a total of a 12-week treatment at 3 mg/Kg/day.” for “described.”\nTo quantify mitochondrial motility, the images at time 0 and 150 seconds w ere overlaid. […]"}}, "note": "Where no end group is shown, it is not given here."}
{"substance": "YGRKKRRQRRRGSGIIQLPEIVVV-NH2 (C-terminus assumed) [P259]", "values": [{"measurement": "reduction of mitochondrial Drp1 association (brain)", "setting": "Drp1", "result": "~ 80%"}, {"measurement": "binding of other receptors (Fis1, Mid49, Mid51) to co-immunoprecipitated recombinant Drp1", "setting": "[1]", "result": "without affecting the binding of any other receptor"}, {"measurement": "rate of mitochondrial fusion", "setting": "Wild-type MEF cells", "result": "did not increase the rate of mitochondrial fusion"}, {"measurement": "survival of HD R6/2 mice", "setting": "HD R6/2 model mice", "result": "further decline in survival"}]}
